What was measured:
HT29 or Caco2 cells = test: Tight junction protein expression (RT PCR, immunoblot, confocal); assay type: cell-based, human; conditions: 24 h; for tight junction protein levels (Western blots; Cldn4 confocal imaging): HT29 and Caco2, 50 μM
Method: Real time PCR: Total RNA was isolated from cells/tissue using Maxwell® 16 LEV simplyRNA tissue kit (Promega) and reverse transcribed with TaqManC Reverse transcription Kit (Applied Biosystems, CA, USA). The transcribed cDNA (after dilution) was mixed with 100 nM gene specific primers (Real time primers LLC) and 1×SYBR green reaction mix (Power SYBR® Green PCR Master Mix; Applied Biosystems, CA, USA). Changes in gene expression was analyzed using CFX96™ Real-Time System (Bio Rad) and fold change in expression was calculated using 2^ΔΔCT method using GAPDH/0-actin as house keeping gene and normalized with untreated control.
Immunoblots (Western blots): The total protein lysates were collected either from colon tissue/cells using radioimmunoprecipitation assay (RIPA) buffer (Sigma-Aldrich, USA) and quantified using BCA protein quantification kit (Thermo Scientific) as per instructional manual. Total protein (20-50 μg) of was resolved on NuPAGE™ 4-12% Bis-Tris gel (Novex Life technologies) and transferred to polyvinylidene difluoride membrane (0.22 μm pore; Millipore, USA). After blocking with 5% (w/v) skim milk powder (containing 1×TBS) for 1 h, the membrane was then incubated with respective antibodies at 4° C. overnight (dilutions of respective antibodies is given in Table A1). Next day, respective secondary antibody conjugated with Horseradish peroxidase were probed and the chemiluminescent substrate was used to detect the protein bands (ImageQuant LAS 4000). Densitometry analysis of bands were done using ImageJ software. Antibodies for Cldn4, Ocln, Cldn1, Cyp1A1, AhR, HO1, NQO1, Keap1, β-actin and Lamin B were purchased from Santa Cruz Biotechnologies (USA) and Nrf2 from Novus Biologicals (USA).
Confocal Imaging: HT29 or CaCo2 or BMDM cells (50,000 cells/well) were plated on to 8-well chambered slides (154534PK; ThermoFisher Scientific) allowed them to grow overnight. The cells were induced with vehicle (0.01% DMSO) or UroA (50 μM) or UAS03 (50 μM) for desired time points and fixed with cold methonol. […]

C57BL/6 mice = test: TNBS-induced colitis; assay type: in vivo, mouse; conditions: for H&E analysis of colon sections / TNBS-induced body weight loss / TNBS-induced colon shortening / TNBS-induced downregulation of Cldn4 in colons / colon weight to length ratio / disease activity index (DAI) score / neutrophil infiltration (myeloperoxidase (MPO) activity) / serum inflammatory markers IL-6, TNF-α, CXCL1 and IL-10: oral 20 mg/kg at 12 h intervals; for loss of body weight, single treatment / TNBS-induced colitis, single treatment: single oral treatment at 4 or 20 mg/kg; for TNBS-induced colitis, single treatment: 12 h post TNBS
Method: 2,4,6-Trinitrobenzenesulfonic acid (TNBS)-induced colitis: Male C57BL/6 or Nrf2^−/− mice (6-8 week old age mice) were anesthetized with ketamine/xylazine (100 mg/12.5 mg/kg IP) mixture and administered with single dose of TNBS (2.5 mg/mice; Sigma Aldrich, USA) in 50% ethanol. After administration of TNBS, mice were held upside down for 30-60 sec to ensure proper distribution of TNBS in the colon. Control group received 50% ethanol without TNBS. Mice with TNBS were randomly divided into three groups, viz. vehicle (0.25% sodium carboxymethylcellulose (CMC)), UroA and UAS03. UroA or UAS03 was resuspended in 0.25% sodium-CMC at desired concentrations. The mice were given orally Veh or UroA or UAS03 in 100 μl at desired concentrations (4 or 20 mg/kg/body weight). The treatment started after 12 hours of TNBS administration and every 12 hours thereafter up to 72 hours. The experiment was terminated post 60 h TNBS, where AhR^−/− mice were involved. In some experiments, we treated only once at post 12 h TNBS administration. TNBS administered and control mice were euthanized for tissue and plasma collection after 80 hours of TNBS/ethanol treatment. Mice were examined for colitis phenotype.
Assessment of colitis severity and tissue collection: Mice were evaluated daily for change in body weight, stool consistency and rectal bleeding and score was given and combined to obtained disease activity index (MURTHY et al., (1993) “Treatment of dextran sulfate sodium-induced murine colitis by intracolonic cyclosporin” Dig Dis Sci, Vol. 38, pp. 1722-1734). After euthanasia, the colon was removed and flushed with PBS containing (1 mM PMSF and 0.2 mM sodium orthovanadate). Colon length and colon weight were measured and small parts of colon were excised for myeloperoxidase (MPO) activity and RNA isolation. Tissues for MPO and RNA extraction were snap frozen in liquid nitrogen and stored in −80° C. until further analysis. Tissue for histological examination was stored in 10% phosphate buffered saline formalin. Blood was collected and serum was separated by centrifugation at 3500×g for 15 min. Serum cytokines (IL-6, TNF-α; Biolegend) and chemokines (CXCL1; R&D Systems) levels were measured by ELISA according to manufacturer's instructions.
In vivo intestinal permeability assay: The gut barrier function was evaluated by in vivo intestinal permeability using FITC-Dextran (MW 4000; FD4, Sigma-Aldrich, USA) (FURUTA et al., (2001) “Hypoxia-inducible factor 1-dependent induction of intestinal trefoil factor protects barrier function during hypoxia” J Exp Med, Vol. 193, pp. 1027-1034). Briefly, mice were orally administered with FITC-dextran (60 mg/100 gm body weight). Mice were fasted for 4 h prior to euthanization. The FITC-dextran concentration in serum was determined using the standard curve of FITC-dextran in serum (excitation, 485 nm; emission, 525 nm; BMG LABTECH).
Myeloperoxidase (MPO) activity: The MPO activity in the colons was determined using the following procedure (KIM et al. (2012) “Investigating intestinal inflammation in DSS-induced model of IBD” J Vis Exp, Vol. 60, Article e3678 (6 pages)). Briefly, colon tissue was homogenized in 0.5% (w/v) hexadecyltrimethylammonium bromide (H6269; Sigma-aldrich, USA) in 50 mM PBS, pH 6.0. This homogenate underwent 3 freeze-thaw cycles and 10-15 sec sonication to obtain homogenous suspension. The supernatant from this suspension was collected after centrifiguaton at 13000×g for 20 min at 4° C. The supernatant (10 μl) was then added to 50 mM potassium phosphate buffer (pH 6.0) containing 0.167 mg/ml o-dianisidine (Sigma-Aldrich, USA) and 0.0005% H2O2(Sigma-Aldrich USA) and absorbance was taken at 450 nm (BMG, LABTECH) at 2 min interval. […]

[1] = test system: 5FU resistant (5FUR) colon cancer cell lines; test: Cell viability of 5FU resistant colon cancer cell lines; assay type: cell-based; conditions: combination of 5FU

Oc1ccc2c(c1)COc1cc(O)ccc1-2 [UAS03, 6H-benzo[c]chromene-3,8-diol]
tight junction protein levels (Western blots; Cldn4 confocal imaging) (HT29 or Caco2 cells): increased levels
H&E analysis of colon sections (C57BL/6 mice): less tissue damage and inflammation scores
TNBS-induced body weight loss (C57BL/6 mice): protected
TNBS-induced colon shortening (C57BL/6 mice): protected from TNBS-induced colon shortening
TNBS-induced downregulation of Cldn4 in colons (C57BL/6 mice): protected from TNBS-induced downregulation of Cldn4
colon weight to length ratio (C57BL/6 mice): reduced weight to length ratio
disease activity index (DAI) score (C57BL/6 mice): reduced
neutrophil infiltration (myeloperoxidase (MPO) activity) (C57BL/6 mice): reduced neutrophil infiltration
serum inflammatory markers IL-6, TNF-α, CXCL1 and IL-10 (C57BL/6 mice): reduced
loss of body weight, single treatment (C57BL/6 mice): did not reach significance
TNBS-induced colitis, single treatment (C57BL/6 mice): mitigated TNBS-induced colitis
cell viability of 5FUR colon cancer cell lines, combination with 5FU [1]: reduced cell viability

O=c1oc2cc(O)ccc2c2ccc(O)cc12 [UroA, 3,8-dihydroxy-6H-dibenzo[b,d]pyran-6-one]
expression of ZO-1 and Ocln1 (real time PCR) (HT29 or Caco2 cells; HT29, 50 μM): increase in expression
tight junction protein levels (Western blots; Cldn4 confocal imaging) (HT29 or Caco2 cells): increased levels
H&E analysis of colon sections (C57BL/6 mice): less tissue damage and inflammation scores
TNBS-induced body weight loss (C57BL/6 mice): protected
TNBS-induced colon shortening (C57BL/6 mice): protected from TNBS-induced colon shortening
TNBS-induced downregulation of Cldn4 in colons (C57BL/6 mice): protected from TNBS-induced downregulation of Cldn4
colon weight to length ratio (C57BL/6 mice): reduced weight to length ratio
disease activity index (DAI) score (C57BL/6 mice): reduced
neutrophil infiltration (myeloperoxidase (MPO) activity) (C57BL/6 mice): reduced neutrophil infiltration
serum inflammatory markers IL-6, TNF-α, CXCL1 and IL-10 (C57BL/6 mice): reduced
loss of body weight, single treatment (C57BL/6 mice): did not reach significance
TNBS-induced colitis, single treatment (C57BL/6 mice): mitigated TNBS-induced colitis
cell viability of 5FUR colon cancer cell lines, combination with 5FU [1]: reduced cell viability
